Test results reported in article PMC8153708, “Inhibition of soluble epoxide hydrolase by phytochemical constituents of the root bark of Ulmus davidiana var. japonica” (Journal of Enzyme Inhibition and Medicinal Chemistry, 2021).

Biological target: T1, soluble epoxide hydrolase (sEH) (Homo sapiens, UniProt P34913)
T1 construct: purchased Cayman 10011669
T1 sequence (P34913 1-555): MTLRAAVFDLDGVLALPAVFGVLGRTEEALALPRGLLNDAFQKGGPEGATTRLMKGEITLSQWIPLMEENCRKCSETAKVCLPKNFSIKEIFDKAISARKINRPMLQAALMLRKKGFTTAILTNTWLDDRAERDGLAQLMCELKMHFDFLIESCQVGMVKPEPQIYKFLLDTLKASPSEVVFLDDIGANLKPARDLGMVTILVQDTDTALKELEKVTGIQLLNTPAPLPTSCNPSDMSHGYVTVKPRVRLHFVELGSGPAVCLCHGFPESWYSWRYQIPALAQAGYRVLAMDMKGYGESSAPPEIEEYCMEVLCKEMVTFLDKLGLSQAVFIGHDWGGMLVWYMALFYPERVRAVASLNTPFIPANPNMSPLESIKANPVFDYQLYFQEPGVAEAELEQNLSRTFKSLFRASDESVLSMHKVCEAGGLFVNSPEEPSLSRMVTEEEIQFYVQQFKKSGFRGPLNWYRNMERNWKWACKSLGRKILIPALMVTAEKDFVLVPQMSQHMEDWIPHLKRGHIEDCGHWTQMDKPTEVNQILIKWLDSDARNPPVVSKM
Test: sEH inhibition assay (PHOME fluorescent substrate)
Assay type: biochemical
Conditions: 37 °C, mean ± SEM; for inhibition at 100 µM: 100 μM compound, after 40 min, read-out: Inhibition of compounds on sEH, 100 μM (%); for IC50: tested three times, read-out: Inhibition of compounds on sEH, IC50
Protocol: The sEH assay was performed as described previously, with minor modifications. For determining inhibitory activity, 130 µL of ∼83 µg/mL sEH in 25 mM bis-Tris–HCl buffer (pH 7.0) containing 0.1% BSA was added to either 20 µL of inhibitor dissolved in MeOH, or MeOH. Next, 50 µL of the 10 µM substrate (PHOME) was added to each mixture and incubated at 37 °C to allow for sEH hydrolysis.
Inhibitory activity was calculated using the following equations: (1) Inhibitoryactivityrate(%)=[(ΔC–ΔI)/ΔC]×100 where ΔC and ΔI are the intensity of the control and inhibitor, respectively, after 40 min. (2) y=y0+(a×x/b+x) where y0 is the minimum value of the y-axis, a is the difference between the maximum and minimum values, and b is the x value at 50% of the a value.
The results were analysed using Sigma Plot (Systat Software Inc., San Jose, CS).

SMILES: COc1cc(C2Oc3c(OC)cc(CCCO)cc3C2CO)ccc1OC1OC(C)C(O)C(O)C1O (centres unmarked) [Compound 7, icariside E4]
- inhibition at 100 µM: 55.6 ± 0.7%
- IC50: 23 ± 0.7 µM

SMILES: Oc1cc(O)c2c(c1)O[C@H](c1ccc(O)c(O)c1)[C@@H](O)C2 [Compound 5, (+)-catechin]
- inhibition at 100 µM: < 38%

SMILES: OCC1(O)COC(Oc2cc(O)c3c(c2)OC(c2ccc(O)c(O)c2)C(O)C3)C1O (stereo not drawn) [Compound 6, catechin-7-O-β-apiofuranoside]
- inhibition at 100 µM: 69.8 ± 2.2%
- IC50: 16 ± 3.2 µM

SMILES: COc1cc(C2Oc3c(OC)cc(CCCO)cc3C2CO[C@@H]2OC[C@@H](O)[C@H](O)[C@H]2O)ccc1O (stereo partly drawn) [Compound 8, 2,3-dihydro-2–(4-hydroxy-3-methoxyphenyl)-5–(3-hydroxypropyl)-7-methoxy-3-benzofuranylmethyl β-D-xylopyranoside]
- inhibition at 100 µM: 64.8 ± 1.4%
- IC50: 36.9 ± 2.6 µM

SMILES: O=C(O)c1ccc(O)c(O)c1 [Compound 9, protocatechuic acid]
- inhibition at 100 µM: < 38%

SMILES: OCc1ccc(O)cn1 [Compound 4, 6-hydroxymethyl-3-pyridinol]
- inhibition at 100 µM: 65.9 ± 0.8%
- IC50: 26.3 ± 4.5 µM

SMILES: O=C1CC(c2ccccc2)Oc2cc(O)c(C3OC(CO)C(O)C(O)C3O)c(O)c21 [Compound 2, pinocembrin 6-C-β-D-glucoside]
- inhibition at 100 µM: 91.8 ± 4.5%
- IC50: 11.4 ± 2.3 µM

SMILES: O=C1OC2Cc3c(O)cc(OC4OCC(O)(CO)C4O)cc3OC2c2ccc(O)c(O)c21 [Compound 1, (6aS,12aR)-3,4,8-trihydroxy-6a-7-dihydroisochromeno[4,3-b]chromen-5(12aH)-one-10-O-β-apiofuranoside]
- inhibition at 100 µM: 59.4 ± 2.5%
- IC50: 14.5 ± 0.5 µM

SMILES: O=C1CC(c2ccc(O)cc2)Oc2cc(O)c(C3OC(CO)C(O)C(O)C3O)c(O)c21 [Compound 3, naringenin-6-C-β-D-glucopyranoside]
- inhibition at 100 µM: < 38%

SMILES: O=C1c2c(O)cc(O)cc2OC(c2cc(O)cc(O)c2)C1O (centres unmarked) [Compound 10, 3,5,7-trihydroxy-2–(3,5-dihydroxyphenyl) chroman-4-one]
- inhibition at 100 µM: 70.7 ± 0.4%
- IC50: 16.1 ± 3.2 µM
